The text below walks through data of US4618604A, “Composition and method for improving feed utilization or tissue production in animals” (Monsanto Company, priority 1984, dated 1986).

Assay [1] is described as follows: Chick growth feeding trial (weight gain and feed conversion, treated vs untreated chicks). It counts as in vivo.
Assay [2] in a line: Pig growth feeding trials I-III (weight gain and feed efficiency, treated vs untreated pigs). Conditions: Example 2, growing period about 18-90 kg. Format: in vivo. The source says: The following examples are included to illustrate the improved feed utilization and/or tissue producing effect of the substituted phenylphosphinic acid derivatives of the present invention. It should be understood that examples are included to illustrate the practice of the present invention and are not intended to limit the scope of the invention. It should be further understood that the dosage levels recited in the following examples are only illustrative and are not meant to limit the scope of the invention. Unless otherwise noted, all percentages are by weight. Comparisons are between the numerical average for treated animals and the numerical average for untreated animals.
A swine diet for growing pigs prepared from the following types and amounts of ingredients:
Three trials were conducted wherein pigs were administered 2-methoxyphenylmethylphosphinic acid at dosage levels of 2.0, 10.0, 20.0 (TRIAL I); 0.5, 2.0, 8.0 (TRIAL II); and 0.5, 2.0, 8.0 (TRIAL III) milligrams per kilogram of finished feed throughout a growing period of about 18-90 kg.

[3] abbreviates: trials I and II, 2.0 mg/kg finished feed.
Where [4] appears, read: Example 10, 1, 20, 60 or 100 mg per kg feed.
The mark [5] stands for this setting: Examples 4 and 6, 1 mg and 10 mg per kg feed.

Structures can show the parent of a compound that is named as a salt.

`CP(=O)(O)c1ccccc1N` [2-aminophenylmethylphosphinic acid hydrochloride salt]: the “average daily weight gain” value in assay [1] (Example 9, 2.0 mg per kg feed) was “higher average daily weight gain than untreated chicks”.

For `CP(=O)(O)c1ccccc1C(=O)O` [2-carboxylphenylmethylphosphinic acid, 2-carboxyphenylmethylphosphinic acid], in assay [1] (Example 7, 11 mg per kg feed), the “average daily weight gain” value is on record as “higher average daily weight gain than untreated chicks”.

In the case of `CP(=O)(O)c1ccccc1Cl` [2-chlorophenylmethylphosphinic acid], the daily weight gain entry in assay [1] (Example 5, 0.5 mg per kg feed) was “higher daily weight gain than untreated chicks”.

For `CCP(=O)(O)c1ccccc1OC` [2-methoxyphenylethylphosphinic acid], the “average daily weight gain” value in assay [1] (Example 8, 10 mg per kg feed) was “higher average daily weight gain than untreated chicks”.

On to `COc1ccccc1P(C)(=O)O` [2-methoxyphenylmethylphosphinic acid], for which the weight gain entry in assay [2] (10.0 and 20.0 mg/kg finished feed, vs untreated) is “gained weight faster than untreated pigs”. Also, in assay [2] (setting [3]), the daily weight gain entry is on record as “faster daily weight gain” and the feed efficiency entry was “improved feed efficiency”. Moreover, in assay [1] (setting [4]), the average daily gain entry is given as “higher average daily gain” and the “conversion of feed to weight gain” value was “converted feed to weight gain more efficiently than untreated chicks”.

For the compound `Cc1ccccc1P(C)(=O)O` [2-methylphenylmethylphosphinic acid], the “conversion of feed to weight gain” value in assay [1] (Example 3, 0.5 to 4.0 mg/kg feed, 45-48 days) is listed as “converted feed to weight gain more efficiently than untreated chicks”.

With `CP(=O)(O)c1ccccc1[N+](=O)[O-]` [2-nitrophenylmethylphosphinic acid], the “average daily weight gain” value in assay [1] (setting [5]) is given as “higher average daily weight gain than untreated chicks”.

For the compound `CP(=O)(O)c1ccccc1O` [Ammonium 2-hydroxyphenylmethylphosphinate], in assay [1] (setting [5]), the “average daily weight gain” value was “higher average daily weight gain than untreated chicks”.
